Laboratory results taken from patent publication US20100222322A1, “Non-Nucleoside Reverse Transcriptase Inhibitors” (MERCK & CO., INC., priority 2005, published 2010).

What follows are compounds tested on HIV replication in T-lymphoid cells (assay: Spread assay: inhibition of acute HIV infection of T-lymphoid cells). Details: Human immunodeficiency virus 1, T-lymphoid, read-out: IC95, spread assay (inhibition of HIV replication).
Assay type: cell-based
Method: An assay for the inhibition of acute HIV infection of T-lymphoid cells (alternatively referred to herein as the “spread assay”) was conducted in accordance with Vacca, J. P. et al., Proc. Natl. Acad. Sci. USA 1994, 91: 4096. […] The compounds of Examples 26, 29, 30, 33-35 and 62 were tested in the spread assay up to 10 micromolar, but specific IC95 values were not obtained; i.e., the IC95 values were greater than 10 micromolar. The compounds of Examples 47 and 61 were not tested.

| SMILES | IC95 |
| --- | --- |
| COC(=O)c1[nH]c2ccc(Br)cc2c1S(=O)(=O)NC1CCCC1 [Example 26, methyl 5-bromo-3-[(cyclopentylamino)sulfonyl]-1H-indole-2-carboxylate] | > 10 µM |
| CCOC(=O)c1[nH]c2ccc(Br)cc2c1S(=O)(=O)NC1CCCC1 [Example 29, ethyl 5-bromo-3-[(cyclopentylamino)sulfonyl]-1H-indole-2-carboxylate] | > 10 µM |
| O=C1CN(S(=O)(=O)c2c(C(=O)NCCO)[nH]c3ccc(Br)cc23)CCN1 [Example 36, 5-bromo-N-(2-hydroxyethyl)-3-[(3-oxopiperazin-1-yl)sulfonyl]-1H-indole-2-carboxamide] | 1 to 10 µM |
| CCOC(=O)c1[nH]c2ccc(Br)cc2c1S(=O)(=O)NCCOC [Example 28, ethyl 5-bromo-3-{[(2-methoxyethyl)amino]sulfonyl}-1H-indole-2-carboxylate] | < 1 µM |
| CCOC(=O)c1[nH]c2ccc(Br)cc2c1S(=O)(=O)N1CCCC1C(F)(F)F (stereo not drawn) [Example 30, ethyl 5-bromo-3-{[2-(trifluoromethyl)pyrrolidin-1-yl]sulfonyl}-1H-indole-2-carboxylate] | > 10 µM |
| CCOC(=O)c1[nH]c2ccc(Br)cc2c1S(=O)(=O)N1CCCCC1 [Example 27, ethyl 5-bromo-3-(piperidin-1-ylsulfonyl)-1H-indole-2-carboxylate] | 1 to 10 µM |

Same assay, conditions: Human immunodeficiency virus 1; acute HIV infection of T-lymphoid cells; tested up to 10 micromolar; read-out: IC95, spread assay (inhibition of HIV replication)

| SMILES | IC95 |
| --- | --- |
| COC(=O)c1[nH]c2ccc(Br)cc2c1S(=O)(=O)N1CCCC1 [Example 25, methyl 5-bromo-3-(pyrrolidin-1-ylsulfonyl)-1H-indole-2-carboxylate] | < 1 µM |
| NC(=O)c1[nH]c2ccc(Cl)cc2c1S(=O)(=O)NC1CCC1 [Example 3, 5-chloro-3-[(cyclobutylamino)sulfonyl]-1H-indole-2-carboxamide] | < 1 µM |
| NC(=O)c1[nH]c2ccc(Cl)cc2c1S(=O)(=O)N1CCCC(F)C1 (stereo not drawn) [Example 41, 5-chloro-3-[(3-fluoropiperidin-1-yl)sulfonyl]-1H-indole-2-carboxamide] | < 1 µM |
| COC(=O)c1[nH]c2ccc(Br)cc2c1S(=O)(=O)N1CCCCC1 [Example 24, methyl 5-bromo-3-(piperidin-1-ylsulfonyl)-1H-indole-2-carboxylate] | < 1 µM |
| NC(=O)c1[nH]c2ccc(Cl)cc2c1S(=O)(=O)N1CCCC1C(F)(F)F (stereo not drawn) [Example 40, 5-chloro-3-{[2-(trifluoromethyl)pyrrolidin-1-yl]sulfonyl}-1H-indole-2-carboxamide] | < 1 µM |
| O=C(NCCO)c1[nH]c2ccc(Br)cc2c1S(=O)(=O)NC1CC1 [Example 33, 5-bromo-3-[(cyclopropylamino)sulfonyl]-N-(2-hydroxyethyl)-1H-indole-2-carboxamide] | > 10 µM |
| C=Cc1ccc2[nH]c(C(N)=O)c(S(=O)(=O)N3CCCC3)c2c1 [Example 66, 3-(pyrrolidin-1-ylsulfonyl)-5-vinyl-1H-indole-2-carboxamide] | < 1 µM |
| O=C(NCCO)c1[nH]c2ccc(Br)cc2c1S(=O)(=O)NC1CCCCC1 [Example 34, 5-bromo-3-[(cyclohexylamino)sulfonyl]-N-(2-hydroxyethyl)-1H-indole-2-carboxamide] | > 10 µM |
| NC(=O)c1[nH]c2ccc(Br)cc2c1S(=O)(=O)N1CCC(F)C1 (stereo not drawn) [Example 22, 5-bromo-3-[(3-fluoropyrrolidin-1-yl)sulfonyl]-1H-indole-2-carboxamide] | < 1 µM |
| NC(=O)c1[nH]c2ccc(-c3cccc4ncccc34)cc2c1S(=O)(=O)N1CCCC1 [Example 67, 3-(pyrrolidin-1-ylsulfonyl)-5-quinolin-5-yl-1H-indole-2-carboxamide] | < 1 µM |
| O=C(NCc1nc2cccnc2[nH]1)c1[nH]c2ccc(Br)cc2c1S(=O)(=O)N1CCCC1 [Example 63, 5-bromo-N-(3H-imidazo[4,5-b]pyridin-2-ylmethyl)-3-(pyrrolidin-1-ylsulfonyl)-1H-indole-2-carboxamide] | < 1 µM |
| O=C(NCc1ccon1)c1[nH]c2ccc(Br)cc2c1S(=O)(=O)N1CCCC1 [Example 58, 5-bromo-N-(isoxazol-3-ylmethyl)-3-(pyrrolidin-1-ylsulfonyl)-1H-indole-2-carboxamide] | < 1 µM |
| NC(=O)c1[nH]c2ccc(Br)cc2c1S(=O)(=O)N1CCC(F)CC1 [Example 45, 5-bromo-3-[(4-fluoropiperidin-1-yl)sulfonyl]-1H-indole-2-carboxamide] | < 1 µM |
| O=C(NCc1ncc(-c2ccccc2)[nH]1)c1[nH]c2ccc(Br)cc2c1S(=O)(=O)N1CCCC1 [Example 62, 5-bromo-N-[(5-phenyl-1H-imidazol-2-yl)methyl]-3-(pyrrolidin-1-ylsulfonyl)-1H-indole-2-carboxamide] | > 10 µM |
| CCCNS(=O)(=O)c1c(C(N)=O)[nH]c2ccc(Br)cc12 [Example 23, 5-bromo-3-[(propylamino)sulfonyl]-1H-indole-2-carboxamide] | < 1 µM |
| NS(=O)(=O)c1ccc(CNC(=O)c2[nH]c3ccc(Br)cc3c2S(=O)(=O)N2CCCC2)cc1 [Example 55, N-[4-(aminosulfonyl)benzyl]-5-bromo-3-(pyrrolidin-1-ylsulfonyl)-1H-indole-2-carboxamide] | < 1 µM |
| O=C(NCc1cscn1)c1[nH]c2ccc(Br)cc2c1S(=O)(=O)N1CCCC1 [Example 57, 5-bromo-3-(pyrrolidin-1-ylsulfonyl)-N-(1,3-thiazol-4-ylmethyl)-1H-indole-2-carboxamide] | < 1 µM |
| O=C(NCCc1cnc[nH]1)c1[nH]c2ccc(Br)cc2c1S(=O)(=O)N1CCCC1 [Example 49, 5-bromo-N-[2-(1H-imidazol-5-yl)ethyl]-3-(pyrrolidin-1-ylsulfonyl)-1H-indole-2-carboxamide] | < 1 µM |
| O=C(NCc1cccnc1)c1[nH]c2ccc(Br)cc2c1S(=O)(=O)N1CCCC1 [Example 50, 5-bromo-N-(pyridin-3-ylmethyl)-3-(pyrrolidin-1-ylsulfonyl)-1H-indole-2-carboxamide] | < 1 µM |
| NC(=O)c1[nH]c2ccc(Br)cc2c1S(=O)(=O)N1CCC(F)(F)C1 [Example 42, 5-bromo-3-[(3,3-difluoropyrrolidin-1-yl)sulfonyl]-1H-indole-2-carboxamide] | < 1 µM |
| O=C(NCCO)c1[nH]c2ccc(Br)cc2c1S(=O)(=O)NC1CCCC1 [Example 35, 5-bromo-3-[(cyclopentylamino)sulfonyl]-N-(2-hydroxyethyl)-1H-indole-2-carboxamide] | > 10 µM |
| NC(=O)c1[nH]c2ccc(Br)cc2c1S(=O)(=O)NC1CCC1 [Example 44, 5-bromo-3-[(cyclobutylamino)sulfonyl]-1H-indole-2-carboxamide] | < 1 µM |
| CN1CCC(CNC(=O)c2[nH]c3ccc(Br)cc3c2S(=O)(=O)N2CCCC2)C1 (stereo not drawn) [Example 60, 5-bromo-N-[(1-methylpyrrolidin-3-yl)methyl]-3-(pyrrolidin-1-ylsulfonyl)-1H-indole-2-carboxamide] | < 1 µM |
| NC(=O)c1[nH]c2ccc(Br)cc2c1S(=O)(=O)N1CCC(F)(F)CC1 [Example 43, 5-bromo-3-[(4,4-difluoropiperidin-1-yl)sulfonyl]-1H-indole-2-carboxamide] | < 1 µM |
| NC(=O)c1[nH]c2ccc(Cl)cc2c1S(=O)(=O)N1CCC(F)CC1 [Example 46, 5-chloro-3-[(4-fluoropiperidin-1-yl)sulfonyl]-1H-indole-2-carboxamide] | < 1 µM |
| COC1CCCN(S(=O)(=O)c2c(C(N)=O)[nH]c3ccc(Br)cc23)C1 (stereo not drawn) [Example 20, 5-bromo-3-[(3-methoxypiperidin-1-yl)sulfonyl]-1H-indole-2-carboxamide] | < 1 µM |
| COCCNC(=O)c1[nH]c2ccc(Br)cc2c1S(=O)(=O)N1CCCC1 [Example 56, 5-bromo-N-(2-methoxyethyl)-3-(pyrrolidin-1-ylsulfonyl)-1H-indole-2-carboxamide] | < 1 µM |
| NC(=O)c1[nH]c2ccc(Cl)cc2c1S(=O)(=O)N1CCC1 [Example 7, 3-(azetidin-1-ylsulfonyl)-5-chloro-1H-indole-2-carboxamide] | < 1 µM |
| O=C(NCCCn1ccnc1)c1[nH]c2ccc(Br)cc2c1S(=O)(=O)N1CCCC1 [Example 52, 5-bromo-N-[3-(1H-imidazol-1-yl)propyl]-3-(pyrrolidin-1-ylsulfonyl)-1H-indole-2-carboxamide] | < 1 µM |
| O=C(NCc1ccccn1)c1[nH]c2ccc(Br)cc2c1S(=O)(=O)N1CCCC1 [Example 54, 5-bromo-N-(pyridin-2-ylmethyl)-3-(pyrrolidin-1-ylsulfonyl)-1H-indole-2-carboxamide] | < 1 µM |
